# Structures can show the parent of a compound that is named as a salt. Where two headings read alike, the source gives them in different places.
# Tests used:
# [1] = Solubility in water at 25° C; assay type: physicochemical
# in vivo = conditions: mouse, in vivo, iv
# Protocol: LD50 was determined by using mice.
# 2. Acute toxicity in mice
# Male ICR weighing 25 to 32 g were used. The test compounds were injected into tail vein and LD 50 values were determined.
# [2] = tested on: vertebral and femoral blood flow; assay: Vertebral and femoral blood flow in anesthetized dogs; assay type: in vivo, mongrel dog; conditions: 0.01 mg/kg i.v. (0.01 or 0.03 mg/kg); for Blood pressure change (Δ mmHg): femoral artery; for Separation ratio (percent increase of vertebral blood flow / that of femoral blood flow): significance vs SKF 24260
# Protocol: Vertebral and femoral blood flow in anesthetized dogs.
# Mongrel dogs of both sexes weighing from 12 to 27 kg were anesthetized with sodium pentobarbitol (30 mg/kg i.v.). In all experiments, trachea was cannulated and the animals were artificially ventilated with room air. Blood pressure in cannulated femoral artery was measured by means of a pressure transducer (Nihon Kohden, MPU 0.5). Vertebral and femoral blood flow were measured by a noncannulating electromagnetic flowmeter (Nihon Kohden, MF-25) positioned around the vessels. Recordings were made on an ink-writing polygraph (Nihon Kohden, RM-150 or RM-85). The test compounds were injected at a dose of 0.01 mg/kg into femoral vein.
# vertebral artery = assay: Direct vasodilating effect on vertebral artery, constant volume perfusion; assay type: in vivo, mongrel dog; conditions: intra-arterial; for Vasodilation ED50, vertebral artery: ±SE, maximum response to papaverine 3000 μg i.a. = 100%
# Source text: (§1) Heparin (1000 μ/Kg, i.v.) was used as an anticoagulant. The methods for perfusion of each artery were as following: 1) For the vertebral artery, the arterial blood led from the left common carotid artery was collected by the tygon tubing and perfused by the Sigma-motor pump (Mippleport N.Y. T-8) into the right vertebral artery. 2) For the femoral artery, the arterial blood led from the proximal femoral artery was perfused by the Sigma-motor pump into the distal femoral artery. […] All drugs were given into a rubber tube connected close to the each arterial cannula by a microinjector (Jintan Terumo, NSN-100).
# femoral artery = assay: Direct vasodilating effect on femoral artery, constant volume perfusion; assay type: in vivo, mongrel dog; conditions: intra-arterial; ±SE; maximum response to papaverine 3000 μg i.a. = 100%
# Source text: For the analysis of the selective effect on vasculature by the drugs, direct effect on cerebral (vertebral artery) and peripheral (femoral artery) vascular bed were studied by the method of the constant volume perfusion.
# as §1
# [3] = Naturwissenschaften 58, (11)578(1971); cited from earlier work
# guinea-pig ileum = assay: Spasmolytic activity in isolated guinea-pig ileum (Magnus apparatus); conditions: Cavia porcellus, ±S.E.
# Protocol: Methods: Isolated guinea-pig ileum was suspended in Tyrodes solution by use of Magnus apparatus and the movements of the muscle were recorded in a kymograph by an isotonic lever.
# [4] = compounds of the present invention, 25° C
# [5] = compounds of the present invention, 25° C, at the given pH, read-out: Solubility
molecule,measurement,setting,value
"2,6-dimethyl-4-(2'-nitrophenyl)-1,4-dihydropyridine-3,5-dicarboxylic acid bis[β-(N-benzyl-N-methylaminethyl] ester hydrochloride [Example 9]",pH (of solubility determination),[1]; [4],3.16
same,solubility,"[1]; compounds of the present invention, 25° C, at the given pH",2.74%
"CC1=C(C(=O)OCCCN(C)Cc2ccccc2)C(c2cccc([N+](=O)[O-])c2)C(C(=O)OC(C)C)=C(C)N1 (stereo not shown) [2,6-dimethyl-4-(3'-nitrophenyl)-1,4-dihydropyridine-3,5-dicarboxylic acid 3-isopropylester-5-γ-(N-benzyl-N-methylamino)propyl ester]",LD50,in vivo,10 mg/kg
"CC1=C(C(=O)OCCN(C)Cc2ccccc2)C(c2cccc([N+](=O)[O-])c2)C(C(=O)OC(C)C)=C(C)N1 (stereo not drawn) [Example 1, 2,6-dimethyl-4-(3'-nitrophenyl)-1,4-dihydropyridine-3,5-dicarboxylic acid-3-isopropylester-5-β-(N-benzyl-N-methylamino)-ethyl ester hydrochloride]",pH (of solubility determination),[1]; [4],4.12
same,solubility,[1]; [5],3100 µg/mL
"CC1=C(C(=O)OCCN(C)Cc2ccccc2)C(c2ccccc2[N+](=O)[O-])C(C(=O)OC(C)C)=C(C)N1 (stereo not drawn) [Example 4, 2,6-dimethyl-4-(2'-nitrophenyl)-1,4-dihydropyridine-3,5-dicarboxylic acid 3-isopropylester-5-β-(N-benzyl-N-methylamino)ethyl ester]",pH (of solubility determination),[1]; [4],4.10
same,solubility,[1]; [5],3200 µg/mL
"CCOC(=O)C1=C(C)NC(C)=C(C(=O)OCCN(C)Cc2ccccc2)C1c1cccc([N+](=O)[O-])c1 (stereo not drawn) [Example 6, 2,6-dimethyl-4-(3'-nitrophenyl)-1,4-dihydropyridine-3,5-dicarboxylic acid 3-ethylester-5-β-(N-benzyl-N-methylamino)ethyl ester]",pH (of solubility determination),[1]; [4],4.20
same,solubility,[1]; [5],2900 µg/mL
"CCOC(=O)C1=C(C)NC(C)=C(C(=O)OCCN(C)Cc2ccc(OC)cc2)C1c1cccc([N+](=O)[O-])c1 (stereo not drawn) [Example 14, 2,6-dimethyl-4-(3'-nitrophenyl)-1,4-dihydropyridine-3,5-dicarboxylic acid 3-ethyl ester 5-β-(N-methyl-N-p-methoxybenzylamino)ethyl ester]",pH (of solubility determination),[1]; [4],4.17
same,solubility,[1]; [5],1000 µg/mL
"COc1ccc(CN(C)CCOC(=O)C2=C(C)NC(C)=C(C(=O)OCCN(C)Cc3ccc(OC)cc3)C2c2cccc([N+](=O)[O-])c2)cc1 [Example 16, dihydrochloride]",pH (of solubility determination),[1]; [4],3.20
same,solubility,[1]; [5],25300 µg/mL
"COC(=O)C1=C(C)NC(C)=C(C(=O)OCCN(C)Cc2ccccc2)C1c1ccccc1C(F)(F)F (stereo not drawn) [Example 24, 2,6-dimethyl-4-(o-trifluoromethyl-phenyl)-1,4-dihydropyridine-3,5-dicarboxylic acid 3-β-(N-benzyl-N-methylamino)ethyl ester 5-methyl ester hydrochloride]",Femoral blood flow (FBF %),[2],67 ± 10.5%
same,Vertebral blood flow (VBF Δ %),[2],119 ± 20.4 Δ %
same,Blood pressure change (Δ mmHg),[2],-28 ± 4.9 Δ mmHg
same,Separation ratio (percent increase of vertebral blood flow / that of femoral blood flow),[2],2.04 ± 0.53
same,pH (of solubility determination),[1]; [4],3.91
same,solubility,[1]; [5],2300 µg/mL
same,LD50,in vivo,23.7 mg/kg
"COC(=O)C1=C(C)NC(C)=C(C(=O)OCCN(C)Cc2ccccc2)C1c1ccccc1[N+](=O)[O-] (stereo not drawn) [Example 36, 2,6-dimethyl-4-(2'-nitrophenyl)-1,4-dihydropyridine-3.5-dicarboxilic acid 3-methyl ester 5-β-(N-benzyl-N-methylamino) ethyl ester hydrochloride]",Femoral blood flow (FBF %),[2],83 ± 14.1%
same,Vertebral blood flow (VBF Δ %),[2],167 ± 31.7 Δ %
same,Blood pressure change (Δ mmHg),[2],-26 ± 5.0 Δ mmHg
same,Separation ratio (percent increase of vertebral blood flow / that of femoral blood flow),[2],2.21 ± 0.56
same,LD50,in vivo,14 mg/kg
"COC(=O)C1=C(C)NC(C)=C(C(=O)OC)C1c1ccccc1[N+](=O)[O-] [Nifedipine, 4-(2'-nitrophenyl)-2,6-dimethyl-1,4-dihydropyridine-3,5-dicarboxylic acid dimethyl ester]",Femoral blood flow (FBF %),[2],109 ± 34.1%
same,Vertebral blood flow (VBF Δ %),[2],135 ± 28.8 Δ %
same,Blood pressure change (Δ mmHg),[2],-39 ± 3.2 Δ mmHg
same,Heart rate (Δbeats/min.±SE),anesthetized dogs; 0.001 mg/Kg i.v.,10±3.5 Δbeats/min.
same,Mean blood pressure (ΔmmHg±SE),anesthetized dogs; 0.001 mg/Kg i.v.,-10±1.6 ΔmmHg
same,Vertebral blood flow (Δ%±SE),anesthetized dogs; 0.001 mg/Kg i.v.,47±13.5 Δ%
same,Heart rate (Δbeats/min.±SE),anesthetized dogs; 0.003 mg/Kg i.v.,18±3.2 Δbeats/min.
same,Mean blood pressure (ΔmmHg±SE),anesthetized dogs; 0.003 mg/Kg i.v.,-24±5.9 ΔmmHg
same,Vertebral blood flow (Δ%±SE),anesthetized dogs; 0.003 mg/Kg i.v.,104±25.8 Δ%
same,Heart rate (Δbeats/min.±SE),anesthetized dogs; 0.01 mg/Kg i.v.,17±4.0 Δbeats/min.
same,Mean blood pressure (ΔmmHg±SE),anesthetized dogs; 0.01 mg/Kg i.v.,-39±3.2 ΔmmHg
same,Vertebral blood flow (Δ%±SE),anesthetized dogs; 0.01 mg/Kg i.v.,135±28.8 Δ%
same,"Vasodilation ED50, vertebral artery",vertebral artery,0.74 ± 0.15 µg
same,"Vasodilation ED50, femoral artery",femoral artery,0.37 ± 0.11 µg
same,Coronary vasodilator activity and spasmolytic activity,[3],much excellent coronary vasodilator activity and spasmolytic activity
COc1ccc(Cc2nccc3cc(OC)c(OC)cc23)cc1OC [Papaverine],IC50,"guinea-pig ileum; read-out: Spasmolytic activity, 50% inhibition of contractile response, Acetylchloline 10^-7 g/ml",11 µg/mL
same,IC50,"guinea-pig ileum; read-out: Spasmolytic activity, 50% inhibition of contractile response, BaCl2 2×10^-4 g/ml",7.2 µg/mL
same,IC50,"guinea-pig ileum; read-out: Spasmolytic activity, 50% inhibition of contractile response, Histamine 10^-7 g/ml",7 µg/mL
same,Heart rate (Δbeats/min.±SE),anesthetized dogs; 0.1 mg/Kg i.v.,8±1.5 Δbeats/min.
same,Mean blood pressure (ΔmmHg±SE),anesthetized dogs; 0.1 mg/Kg i.v.,-9±1.1 ΔmmHg
same,Vertebral blood flow (Δ%±SE),anesthetized dogs; 0.1 mg/Kg i.v.,22±3.4 Δ%
same,Heart rate (Δbeats/min.±SE),anesthetized dogs; 0.3 mg/Kg i.v.,22±3.5 Δbeats/min.
same,Mean blood pressure (ΔmmHg±SE),anesthetized dogs; 0.3 mg/Kg i.v.,-21±2.8 ΔmmHg
same,Vertebral blood flow (Δ%±SE),anesthetized dogs; 0.3 mg/Kg i.v.,67±7.1 Δ%
same,Heart rate (Δbeats/min.±SE),anesthetized dogs; 1.0 mg/Kg i.v.,44±4.8 Δbeats/min.
same,Mean blood pressure (ΔmmHg±SE),anesthetized dogs; 1.0 mg/Kg i.v.,-32±3.5 ΔmmHg
same,Vertebral blood flow (Δ%±SE),anesthetized dogs; 1.0 mg/Kg i.v.,124±13.8 Δ%
same,Selectivity ratio (ED50 in femoral artery/ED50 in vertebral artery),vertebral artery; anesthetized dogs,0.67
same,"Vasodilation ED50, vertebral artery",vertebral artery,72.8 ± 8.71 µg
same,"Vasodilation ED50, femoral artery",femoral artery,48.8 ± 3.73 µg
"CCOC(=O)C1=C(C)NC(C)=C(C(=O)OCCN(C)Cc2ccccc2)C1c1cccc([N+](=O)[O-])c1 (stereo not drawn) [R5=C2H5O, A=CH2CH2, R3=drawing 10, R4=CH3, 2,6-Dimethyl-4-(3'-nitrophenyl)-1,4-dihydropyridine-3,5-dicarboxylic acid 3-β-(N-benzyl-N-methylamino)ethyl ester 5-ethyl ester]",LD50,in vivo,15 mg/kg
"CCOC(=O)C1=C(C)NC(C)=C(C(=O)OCCN(C)Cc2ccc(OC)cc2)C1c1cccc([N+](=O)[O-])c1 (stereo not shown) [R5=C2H5O, A=CH2CH2, R3=drawing 12, R4=CH3]",LD50,in vivo,10 mg/kg
"CCOC(=O)C1=C(C)NC(C)=C(C(=O)OCCN(C)Cc2ccc(Cl)cc2)C1c1cccc([N+](=O)[O-])c1 (stereo not shown) [R5=C2H5O, A=CH2CH2, R3=drawing 13, R4=CH3]",LD50,in vivo,12 mg/kg
"CC(=O)C1=C(C)NC(C)=C(C(=O)OCCN(C)Cc2ccccc2)C1c1cccc([N+](=O)[O-])c1 (stereo not drawn) [R5=CH3, A=CH2CH2, R3=drawing 14, R4=CH3, 3-Acetyl-2,6-dimethyl-4-(3'-nitrophenyl)-1,4-dihydropyridine-5-carboxylic acid 3-β-(N-benzyl-N-methylamino)ethyl ester]",LD50,in vivo,40 mg/kg
"CC(=O)C1=C(C)NC(C)=C(C(=O)OCCN(C)Cc2ccc(Cl)cc2)C1c1cccc([N+](=O)[O-])c1 (stereo not drawn) [R5=CH3, A=CH2CH2, R3=drawing 15, R4=CH3, 3-Acetyl-2,6-dimethyl-4-(3'-nitrophenyl)-1,4-dihydropyridine-5-carboxylic acid 3-β-(N-p-chlorobenzyl-N-methylamino)ethyl ester]",LD50,in vivo,45 mg/kg
"CCN(CCOC(=O)C1=C(C)NC(C)=C(C(=O)OC(C)C)C1c1cccc([N+](=O)[O-])c1)Cc1ccccc1 (stereo not drawn) [R5=drawing 11, A=CH2CH2, R3=drawing 10, R4=C2H5, 2,6-Dimethyl-4-(3'-nitrophenyl)-1,4-dihydropyridine-3,5-dicarboxylic acid 3-β-(N-benzyl-N-ethylamino)ethyl ester 5-isopropyl ester]",LD50,in vivo,12 mg/kg
"CC1=C(C(=O)OCCN(C)Cc2ccccc2)C(c2cccc([N+](=O)[O-])c2)C(C(=O)OC(C)C)=C(C)N1 (stereo not drawn) [R5=drawing 11, A=CH2CH2, R3=drawing 10, R4=CH3, 2,6-Dimethyl-4-(3'-nitrophenyl)-1,4-dihydropyridine-3,5-dicarboxylic acid 3-β-(N-benzyl-N-methylamino)ethyl ester 5-isopropyl ester]",LD50,in vivo,15 mg/kg
COC(=O)C1=C(C)NC(C)=C(C(=O)OC)C1c1ccccc1C#N [reference compound],Femoral blood flow (FBF %),[2],109 ± 28.0%
same,Vertebral blood flow (VBF Δ %),[2],97 ± 16.0 Δ %
same,Blood pressure change (Δ mmHg),[2],-38 ± 6.0 Δ mmHg
same,Separation ratio (percent increase of vertebral blood flow / that of femoral blood flow),[2],1.20 ± 0.27
same,pH (of solubility determination),"[1]; known compounds, 25° C",5.80
same,solubility,"[1]; known compounds, 25° C, at the given pH, read-out: Solubility",10 µg/mL
same,solubility,"[1]; known compounds, pH 4.00, 25° C, read-out: Solubility at pH 4.00",1 µg/mL
same,LD50,in vivo,7.4 mg/kg

# — patent publication US3985758A, “1,4-Dihydropyridine derivatives” (Yamanouchi Pharmaceutical Co., Ltd., priority 1973, dated 1976)
